Target: branched-chain amino acid binding protein (Escherichia coli, UniProt P0AD96)
Test: Binding of amino acids to branched-chain amino acid binding protein biosensor (microfluidic column sensor)
Settings: binding affinity of the analyte to the branched-chain amino acid binding protein biosensor; FIG. 9
Description: FIG. 9(A) illustrates amino acids that bind at varying affinities to a microfluidic column biosensor, where F/F0 is the fluorescence intensity ratio.
Microfluidic column sensors are also useful when the biosensor detects more than one analyte but with different binding affinities. […] This is shown in FIG. 9, where a mixture of these amino acids can be separately detected over the length of the microfluidic column.

Chain of branched-chain amino acid binding protein (P0AD96 24-367): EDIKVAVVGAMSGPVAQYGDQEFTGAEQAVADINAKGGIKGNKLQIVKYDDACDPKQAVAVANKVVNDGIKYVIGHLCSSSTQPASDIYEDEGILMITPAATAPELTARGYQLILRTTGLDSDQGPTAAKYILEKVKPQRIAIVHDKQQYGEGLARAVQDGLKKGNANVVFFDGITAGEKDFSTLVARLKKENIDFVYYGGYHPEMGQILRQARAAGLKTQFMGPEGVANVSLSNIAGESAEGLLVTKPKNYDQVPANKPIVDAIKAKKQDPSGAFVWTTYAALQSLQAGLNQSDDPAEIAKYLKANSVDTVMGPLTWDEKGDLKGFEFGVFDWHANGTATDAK

Q: For `CC(C)[C@H](N)C(=O)O` [valine], which Kd is on record?
A: 135 µM

Q: For `CC[C@H](C)[C@H](N)C(=O)O` [isoleucine], which Kd is on record?
A: 68 µM

Q: With `CC(C)C[C@H](N)C(=O)O` [leucine] as the compound, how does the Kd read?
A: 58 µM
